Reference: ChEMBL document CHEMBL1201862, “PubChem BioAssay data set” (2004)
Active and inactive are the calls of the source.

How the values were obtained:
Nonstructural protein 1 = Nonstructural protein 1 (Influenza A virus, UniProt Q194T2); type: functional, Influenza A virus (A/California/07/2009(H1N1))
cells [1] = type: functional, cell-based
cells [2] = type: functional, cell-based; remark: listed apart in the source
[3] = biological target: T1, Zinc finger protein mex-5 (Caenorhabditis elegans, UniProt Q9XUB2); assay: MEX-5/TCR-2 RNA interaction inhibitors, dose response, biochemical, C. elegans, fluorescence polarization (AID 1960)
T1 sequence (Q9XUB2 whole entry): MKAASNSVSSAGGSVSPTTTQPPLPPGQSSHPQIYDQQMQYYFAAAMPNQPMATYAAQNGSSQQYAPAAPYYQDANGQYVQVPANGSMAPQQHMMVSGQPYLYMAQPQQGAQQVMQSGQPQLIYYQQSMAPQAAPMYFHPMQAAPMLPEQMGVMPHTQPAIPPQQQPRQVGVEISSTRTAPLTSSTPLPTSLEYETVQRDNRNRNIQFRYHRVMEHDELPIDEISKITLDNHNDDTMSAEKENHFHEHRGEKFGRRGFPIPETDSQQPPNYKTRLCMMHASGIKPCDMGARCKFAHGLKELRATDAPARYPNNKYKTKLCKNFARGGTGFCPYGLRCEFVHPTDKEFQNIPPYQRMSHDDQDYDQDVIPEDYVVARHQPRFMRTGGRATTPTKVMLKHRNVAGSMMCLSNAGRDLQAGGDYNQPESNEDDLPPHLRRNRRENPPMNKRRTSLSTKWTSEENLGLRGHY

[4] = biological target: T2, RNA-binding protein pos-1 (Caenorhabditis elegans, UniProt G5EF15); assay: inhibitors of POS-1/mex-3 RNA binding, dose response, biochemical, fluorescence polarization (AID 1964);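 note: purified POS-1 fused to maltose binding protein made in E. coli; potency of compounds blocking POS-1 binding to fluorescent RNA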
T2 sequence (G5EF15 whole entry): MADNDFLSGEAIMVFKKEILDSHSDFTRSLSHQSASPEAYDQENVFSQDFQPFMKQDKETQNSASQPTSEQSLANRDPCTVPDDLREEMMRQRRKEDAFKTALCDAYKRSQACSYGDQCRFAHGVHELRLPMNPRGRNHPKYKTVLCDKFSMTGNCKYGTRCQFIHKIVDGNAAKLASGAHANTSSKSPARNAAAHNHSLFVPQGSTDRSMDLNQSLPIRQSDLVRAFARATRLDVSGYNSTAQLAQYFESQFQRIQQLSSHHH

Cytochrome P450 3A4 = Cytochrome P450 3A4 (Homo sapiens, UniProt P08684);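 note: CYP3A4 tested as one member of a cytochrome P450 panel screen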
Chain of Cytochrome P450 3A4 (P08684 whole entry): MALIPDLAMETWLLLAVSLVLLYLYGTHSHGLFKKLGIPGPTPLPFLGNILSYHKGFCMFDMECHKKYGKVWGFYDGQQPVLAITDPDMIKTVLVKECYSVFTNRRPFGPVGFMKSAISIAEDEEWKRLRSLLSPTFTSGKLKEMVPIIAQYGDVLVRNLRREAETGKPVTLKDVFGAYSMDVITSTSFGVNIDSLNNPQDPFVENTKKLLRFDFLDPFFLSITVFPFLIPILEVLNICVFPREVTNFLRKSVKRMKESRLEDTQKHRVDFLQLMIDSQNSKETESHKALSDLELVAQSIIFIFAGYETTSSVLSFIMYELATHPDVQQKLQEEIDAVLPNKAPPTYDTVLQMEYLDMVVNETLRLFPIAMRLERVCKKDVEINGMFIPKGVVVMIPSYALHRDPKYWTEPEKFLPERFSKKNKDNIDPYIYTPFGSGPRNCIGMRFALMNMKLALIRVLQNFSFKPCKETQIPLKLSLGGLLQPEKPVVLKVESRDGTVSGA

cells [5] = type: functional
Large T antigen = Large T antigen (Simian virus 40, UniProt P03070); type: functional, Betapolyomavirus macacae;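 note: Confirmatory-stage PubChem screen for compounds that inhibit SV40 T antigen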
Chain of Large T antigen (P03070 whole entry): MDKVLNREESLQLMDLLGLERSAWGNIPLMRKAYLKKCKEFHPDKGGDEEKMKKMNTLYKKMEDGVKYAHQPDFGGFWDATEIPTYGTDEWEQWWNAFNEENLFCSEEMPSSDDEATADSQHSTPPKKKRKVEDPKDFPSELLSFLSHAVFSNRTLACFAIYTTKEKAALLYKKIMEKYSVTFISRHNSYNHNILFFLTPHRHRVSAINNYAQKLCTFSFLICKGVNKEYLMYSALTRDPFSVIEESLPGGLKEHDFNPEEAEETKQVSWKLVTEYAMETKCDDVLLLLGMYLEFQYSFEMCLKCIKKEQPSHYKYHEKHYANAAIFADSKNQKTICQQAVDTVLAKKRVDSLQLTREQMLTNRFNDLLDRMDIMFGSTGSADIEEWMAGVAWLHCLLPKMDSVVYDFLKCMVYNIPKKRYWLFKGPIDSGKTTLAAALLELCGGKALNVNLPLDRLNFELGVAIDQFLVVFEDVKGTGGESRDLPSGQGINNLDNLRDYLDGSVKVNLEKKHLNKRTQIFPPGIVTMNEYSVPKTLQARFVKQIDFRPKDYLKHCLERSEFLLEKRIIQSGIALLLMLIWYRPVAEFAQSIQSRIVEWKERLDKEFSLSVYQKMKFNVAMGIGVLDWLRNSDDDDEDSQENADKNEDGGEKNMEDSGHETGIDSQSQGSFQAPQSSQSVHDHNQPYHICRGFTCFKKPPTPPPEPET

[6] = biological target: T3, Rac GTPase-activating protein 1 (Homo sapiens, UniProt Q9H0H5); assay: MgcRacGAP GTPase-activating activity inhibitors, confirmation, biochemical, ADP Hunter fluorescence, primary and confirmatory (AID 624330); type: functional
T3 sequence (Q9H0H5 whole entry): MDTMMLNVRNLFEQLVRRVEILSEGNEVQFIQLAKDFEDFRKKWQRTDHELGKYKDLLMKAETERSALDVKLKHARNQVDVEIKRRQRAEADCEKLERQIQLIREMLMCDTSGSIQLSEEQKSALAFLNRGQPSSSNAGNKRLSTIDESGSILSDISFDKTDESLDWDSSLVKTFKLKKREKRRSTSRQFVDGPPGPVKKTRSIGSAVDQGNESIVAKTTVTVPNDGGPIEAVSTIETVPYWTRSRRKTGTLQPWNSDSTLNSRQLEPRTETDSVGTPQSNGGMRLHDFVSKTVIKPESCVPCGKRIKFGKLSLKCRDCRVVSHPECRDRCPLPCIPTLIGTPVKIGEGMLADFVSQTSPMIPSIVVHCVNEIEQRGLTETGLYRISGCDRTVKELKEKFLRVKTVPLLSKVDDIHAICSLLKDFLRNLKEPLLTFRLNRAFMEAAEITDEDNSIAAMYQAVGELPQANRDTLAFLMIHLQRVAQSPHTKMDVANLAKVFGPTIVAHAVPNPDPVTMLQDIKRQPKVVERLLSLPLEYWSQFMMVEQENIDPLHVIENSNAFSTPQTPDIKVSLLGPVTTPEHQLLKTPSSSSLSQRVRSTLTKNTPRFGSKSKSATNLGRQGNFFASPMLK

Cytochrome P450 2C9 = Cytochrome P450 2C9 (Homo sapiens, UniProt P11712)
Chain of Cytochrome P450 2C9 (P11712 whole entry): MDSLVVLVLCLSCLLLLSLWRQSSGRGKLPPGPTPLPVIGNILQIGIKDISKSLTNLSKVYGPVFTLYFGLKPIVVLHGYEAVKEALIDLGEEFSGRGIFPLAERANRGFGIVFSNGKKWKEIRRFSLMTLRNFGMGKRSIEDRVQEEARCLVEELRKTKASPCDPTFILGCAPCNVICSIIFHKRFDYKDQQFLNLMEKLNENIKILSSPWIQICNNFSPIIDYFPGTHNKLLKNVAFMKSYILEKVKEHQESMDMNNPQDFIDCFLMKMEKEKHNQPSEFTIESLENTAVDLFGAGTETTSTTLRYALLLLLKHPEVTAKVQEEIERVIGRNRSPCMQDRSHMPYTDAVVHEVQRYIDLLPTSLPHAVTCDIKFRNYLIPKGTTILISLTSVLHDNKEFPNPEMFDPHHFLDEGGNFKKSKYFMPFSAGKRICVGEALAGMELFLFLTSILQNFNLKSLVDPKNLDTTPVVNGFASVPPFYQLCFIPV

Chain of Nonstructural protein 1 (Q194T2 whole entry): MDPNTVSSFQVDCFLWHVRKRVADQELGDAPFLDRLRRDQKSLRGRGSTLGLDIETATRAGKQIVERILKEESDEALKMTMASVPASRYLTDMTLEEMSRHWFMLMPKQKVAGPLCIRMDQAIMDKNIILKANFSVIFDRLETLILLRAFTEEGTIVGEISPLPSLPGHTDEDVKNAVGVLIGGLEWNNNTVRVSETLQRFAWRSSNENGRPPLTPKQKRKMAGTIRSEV

## CCc1ccc(NC(=O)N(CCN2CCOCC2)Cc2ccc3c(c2)CCCN3CC)cc1
Nonstructural protein 1
  IC50: 40.6 µM (active)

## CN(C1CCCC1)C1CCN(C(S)=Nc2cc(F)cc(F)c2)CC1
Cells [1]
  EC50: > 350 µM (not active)
Cells [2]
  EC50: > 350 µM (not active)

## Cc1ccccc1NC(=O)/C(C#N)=C/c1ccc(-c2ccc(Cl)c(C(=O)O)c2)o1
[3]
  EC50: > 300 µM (not active)
[4]
  EC50: > 300 µM (not active)

## C=CCn1c(=S)[nH]c2nc3c(cc2c1=O)COC(C)(C)C3
[3]
  EC50: > 300 µM (not active)
[4]
  EC50: > 300 µM (not active)

## COc1cccc(C2C3=C(N=c4s/c(=C\c5ccccc5O)c(=O)n42)c2ccccc2CC3)c1OC (stereo not drawn)
Cells [1]
  EC50: > 350 µM (not active)
Cells [2]
  EC50: > 350 µM (not active)

## Cc1cc(Oc2ccccc2)nc(N2CCOCC2)n1
Cells [1]
  EC50: > 350 µM (not active)
Cells [2]
  EC50: > 350 µM (not active)

## CSc1nncc(/C(C)=N\Nc2ccccc2)n1
[3]
  EC50: > 300 µM (not active)
Cytochrome P450 3A4
  AC50: 2.51 µM (inconclusive)
[4]
  EC50: 41.3 µM (active)

## Cc1cc(/C=C(\C#N)C(=O)Nc2ccccc2)c(C)n1-c1ccc(C(=O)O)cc1
[3]
  EC50: > 300 µM (not active)
[4]
  EC50: > 300 µM (not active)

## C/C(=N\NC(=O)c1ccc([N+](=O)[O-])c(C)c1)c1ccccc1Cl
Cells [5]
  IC50: 42.2 µM (active)

## CCn1nc(C)c(/C=C2\CCCC3=C2OC(N)=C(C#N)C3c2c(C)nn(CC)c2C)c1C (stereo not drawn)
[3]
  EC50: 51.8 µM (active)
[4]
  EC50: 36 µM (active)

## COC(=O)/C(C#N)=C/c1c(N2CCN(Cc3ccc4c(c3)OCO4)CC2)nc2c(C)cccn2c1=O
Cells [1]
  EC50: > 350 µM (not active)
Cells [2]
  EC50: > 350 µM (not active)

## CCOC(=O)c1cc(-c2ccc(N)cc2)sc1N
Large T antigen
  IC50: 9.87 µM (active)

## O=C(COC(=O)COc1ccc(Nc2ccccc2)cc1)NCc1ccco1
Cells [5]
  IC50: 4.72 µM (active)
[6]
  IC50: 77.4 µM (active)

## COc1cc(C2C(C#N)=C(N)OC3=C2C(=O)CCC3)cc(OC)c1OC(=O)N1CCOCC1 (stereo not drawn)
[3]
  EC50: > 300 µM (not active)
Cytochrome P450 3A4
  AC50: 25.1 µM (inconclusive)
[4]
  EC50: > 300 µM (not active)
Cytochrome P450 2C9
  AC50: 22.4 µM (inconclusive)
